Here are results for one substance from patent US20070270458A1 (priority 2003, published 2007).

The target in the assay is α7 nAChR subtype (Rattus norvegicus, UniProt Q05941). Format: binding.
Sequence of α7 nAChR subtype (Q05941 23-502 limits assumed): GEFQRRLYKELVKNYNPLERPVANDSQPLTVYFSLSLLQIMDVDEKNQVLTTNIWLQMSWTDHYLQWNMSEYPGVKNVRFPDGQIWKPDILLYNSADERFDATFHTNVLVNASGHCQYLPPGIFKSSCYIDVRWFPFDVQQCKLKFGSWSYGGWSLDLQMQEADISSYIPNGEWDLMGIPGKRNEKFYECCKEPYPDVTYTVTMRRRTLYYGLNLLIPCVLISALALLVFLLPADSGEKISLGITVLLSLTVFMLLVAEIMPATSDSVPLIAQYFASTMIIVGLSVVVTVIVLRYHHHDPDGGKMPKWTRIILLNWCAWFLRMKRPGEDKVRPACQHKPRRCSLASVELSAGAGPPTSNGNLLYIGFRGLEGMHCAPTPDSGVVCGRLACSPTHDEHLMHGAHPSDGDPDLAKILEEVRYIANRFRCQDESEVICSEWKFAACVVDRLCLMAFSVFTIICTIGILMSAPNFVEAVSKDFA

^125I-α—Bungarotoxin [^125I-α-BTX]: the equilibrium dissociation constant (Kd) was 1.67 nM.

As usually defined, the Kd is the equilibrium constant for the complex coming apart. Higher therefore signals weaker binding.
